# Experimental data from the supplement of paper PMC10307832.
# Experiments:
# Experiment in all cases: relative viability (nuclei count vs DMSO), 5 days (fraction); higher = more cells survive
# [1] = compound: C[C@H]([C@@H](C(=O)N)NC(=O)[C@@H]1CSSC[C@@H](C(=O)N[C@H](C(=O)N[C@@H](C(=O)N[C@H](C(=O)N1)CCCCN)CC2=CNC3=CC=CC=C32)CC4=CC=C(C=C4)O)NC(=O)[C@@H](CC5=CC=CC=C5)N)O [CAP-232] + CS(=O)(=O)CCNCc1ccc(-c2ccc3ncnc(Nc4ccc(OCc5cccc(F)c5)c(Cl)c4)c3c2)o1 [Lapatinib] (partner 2 µM)
# Summary of the method: (§1)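 Lung cancer cell lines were pin-tool dosed in 1536-well plates on the day after seeding, with either a lone drug or a fixed anchor-drug dose plus five library-drug doses (not always all listed) in √10 steps. Nuclei were counted on 4× images after 5 days. Relative viability is the ratio of treated-well to vehicle-well nuclei counts, with each value a median of duplicate plates.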
# [2] = compound: C[C@H]([C@@H](C(=O)N)NC(=O)[C@@H]1CSSC[C@@H](C(=O)N[C@H](C(=O)N[C@@H](C(=O)N[C@H](C(=O)N1)CCCCN)CC2=CNC3=CC=CC=C32)CC4=CC=C(C=C4)O)NC(=O)[C@@H](CC5=CC=CC=C5)N)O [CAP-232] + CC(=O)c1c(C)c2cnc(Nc3ccc(N4CCNCC4)cn3)nc2n(C2CCCC2)c1=O [Palbociclib] (partner 0.5 µM)
# Summary of the method: as §1
# [3] = compound: C[C@H]([C@@H](C(=O)N)NC(=O)[C@@H]1CSSC[C@@H](C(=O)N[C@H](C(=O)N[C@@H](C(=O)N[C@H](C(=O)N1)CCCCN)CC2=CNC3=CC=CC=C32)CC4=CC=C(C=C4)O)NC(=O)[C@@H](CC5=CC=CC=C5)N)O [CAP-232] + CS(=O)(=O)N1CCN(Cc2cc3nc(-c4cccc5[nH]ncc45)nc(N4CCOCC4)c3s2)CC1 [Pictilisib] (partner 1 µM)
# Summary of the method: as §1
# [4] = compound: C[C@H]([C@@H](C(=O)N)NC(=O)[C@@H]1CSSC[C@@H](C(=O)N[C@H](C(=O)N[C@@H](C(=O)N[C@H](C(=O)N1)CCCCN)CC2=CNC3=CC=CC=C32)CC4=CC=C(C=C4)O)NC(=O)[C@@H](CC5=CC=CC=C5)N)O [CAP-232] + CC(C)C[C@H](NC(=O)[C@H](Cc1ccccc1)NC(=O)c1cnccn1)B(O)O [Bortezomib] (partner 0.002 µM)
# Summary of the method: as §1
# [5] = compound: C[C@H]([C@@H](C(=O)N)NC(=O)[C@@H]1CSSC[C@@H](C(=O)N[C@H](C(=O)N[C@@H](C(=O)N[C@H](C(=O)N1)CCCCN)CC2=CNC3=CC=CC=C32)CC4=CC=C(C=C4)O)NC(=O)[C@@H](CC5=CC=CC=C5)N)O [CAP-232] + Nc1nc2[nH]cc(CCc3ccc(C(=O)N[C@@H](CCC(=O)O)C(=O)O)cc3)c2c(=O)[nH]1 [Pemetrexed] (partner 0.2 µM)
# Summary of the method: as §1
Cell Line,relative viability ([1]; first compound 0.4 µM),relative viability ([1]; first compound 1.265 µM),relative viability ([1]; first compound 4 µM),relative viability ([1]; first compound 12.65 µM),relative viability ([2]; first compound 0.4 µM),relative viability ([2]; first compound 1.265 µM),relative viability ([2]; first compound 4 µM),relative viability ([2]; first compound 12.65 µM),relative viability ([3]; first compound 0.4 µM),relative viability ([3]; first compound 1.265 µM),relative viability ([3]; first compound 4 µM),relative viability ([3]; first compound 12.65 µM),relative viability ([4]; first compound 0.4 µM),relative viability ([4]; first compound 1.265 µM),relative viability ([4]; first compound 4 µM),relative viability ([4]; first compound 12.65 µM),relative viability ([5]; first compound 0.4 µM),relative viability ([5]; first compound 1.265 µM),relative viability ([5]; first compound 4 µM),relative viability ([5]; first compound 12.65 µM)
201T,1.11,0.98,1.04,1.04,0.357,0.354,0.317,0.376,0.765,0.657,0.678,0.713,1.17,1.04,1.05,1.1,0.341,0.332,0.356,0.303
A549,1.1,1,1.05,0.42,–,–,–,–,0.591,0.472,0.563,0.203,–,–,–,–,–,–,–,–
ABC-1,1,1.12,0.887,1.26,0.641,–,0.691,0.513,0.616,0.878,0.745,0.411,0.296,0.306,0.222,0.264,–,–,–,–
ChaGo-K-1,–,–,–,–,0.964,0.932,1.01,0.932,1,0.51,0.703,0.256,1.45,0.768,1.06,0.784,0.284,0.259,0.259,0.248
IA-LM,0.79,0.705,0.928,0.292,–,–,–,–,0.359,0.365,0.39,0.146,0.861,0.656,0.698,0.236,–,–,–,–
LCLC-103H,–,–,–,–,0.469,0.429,0.487,0.485,0.707,0.564,0.536,0.595,1.33,0.927,1.16,1,0.443,0.441,0.431,0.445
LK-2,0.942,1.06,0.808,0.759,0.595,0.802,0.576,0.783,0.42,0.608,0.494,0.61,–,–,–,–,0.325,0.284,0.326,0.294
NCI-H358,0.395,0.393,0.436,0.445,0.22,0.125,0.14,0.153,0.28,0.301,0.298,0.402,–,–,–,–,0.151,0.171,0.187,0.187
NCI-H441,–,–,–,–,0.209,0.19,0.257,0.214,0.411,0.462,0.412,0.385,0.429,0.357,0.392,0.436,0.25,0.234,0.281,0.262
NCI-H522,–,–,–,–,0.982,0.929,1.05,0.848,–,–,–,–,–,–,–,–,0.921,1.08,0.888,0.974
